The target of experiment [1] is [3H] Dopamine reuptake in rat brain tissue. As to the kind of experiment: in vitro [3H]dopamine reuptake inhibition in rat brain tissue. In kind it is biochemical. To be noted: means of ≧3 separate determinations.
For experiment [2], the target named is [3H] Noradenaline reuptake in rat brain tissue. As to the kind of experiment: in vitro [3H]noradrenaline reuptake inhibition in rat brain tissue. To be noted: means of ≧3 separate determinations. In kind it is biochemical.

The structures appear in SMILES notation.

Regarding `CC(NC(C)(C)C)C(=O)c1cccc(Cl)c1` (stereo not shown) [Bupropion], the Ki – broadly, a dissociation constant, usually derived from enzyme kinetics or from competition with a known ligand – in experiment [1] came to 409 nM; in experiment [2], 2590 nM.

Consider `COc1ccc(C(CN(C)C)C2(O)CCCCC2)cc1` (stereo not shown) [Venlafaxine], for which the Ki in experiment [1] is 2590 nM; in experiment [2], 196 nM.

Source of the values: US6365632B1, “Treatment of orthostatic hypotension” (Knoll Pharmaceuticals Company, priority 1999, dated 2002).
